The source made the active and inactive calls.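 Rule for the calls: active = inhibition above 30% at one or more tested concentrations in the dose response; inactive = inhibition below 30% at every tested concentration.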
system: S. Typhimurium PhoP-regulated promoter GFP reporter, 4 h; experiment: PhoP-dependent GFP reporter suppression – synthesized compounds, round 3, SAR follow-up (AID 434996); settings: not given

| Compound | IC50 [µM] |
| --- | --- |
| S=C(NCCc1ccc(Cl)cc1)Nc1ccncc1 | 29.2 |
| O=C(Nc1ccc(Cl)cc1)N1CCCN(Cc2ccc(Br)cc2)C1 | 135 |
| O=C(Nc1ccc(I)cc1)N1CCCN(Cc2ccccc2F)C1 | 148 |

system: not listed separately; experiment: as above; settings: S. Typhimurium PhoP-regulated promoter GFP reporter, 4 h; at 150 µM (top of the series)

| Compound | inhibition |
| --- | --- |
| Cc1ccc(NC(=O)N2CCCN(Cc3ccccc3F)C2)cc1 | -3.01% (inactive) |
| O=C(Nc1cccc(I)c1)N1CCCN(Cc2ccccc2F)C1 | 20.6% (inactive) |
| Cc1ccccc1CNC(=S)Nc1ccncc1 | 15.3% (inactive) |
| O=C(Nc1ccc(Cl)cc1)N1CCCN(Cc2ccccc2Br)C1 | 26.3% (inactive) |
| O=C(Nc1cccc(F)c1)N1CCCN(Cc2ccccc2F)C1 | 23.5% (inactive) |
| Cc1cccc(NC(=O)N2CCCN(Cc3ccccc3F)C2)c1 | 21.2% (inactive) |
| O=C(Nc1cccc(C(F)(F)F)c1)N1CCCN(Cc2ccccc2F)C1 | 8.93% (inactive) |
| N#Cc1ccccc1NC(=S)NCc1ccc(Cl)cc1 | -0.55% (inactive) |
| N#Cc1ccc(NC(=S)NCc2ccc(Cl)cc2)cc1 | -4.09% (inactive) |

From PubChem BioAssay AID434996 (Southern Research Specialized Biocontainment Screening …, 2010)
